# Laboratory results reported in patent publication US12077503B2, “Substituted cyclic amides and their use as herbicides” (FMC CORPORATION, priority 2015, dated 2024).
# Legend:
# Type in all cases: in vivo
# Conditions in all cases: scale 0 to 100
# [1] = tested on: dayflower, VA (Virginia dayflower, Commelina virginica); assay: Test E preemergence
# Text: (§1) Seeds of plant species selected from corn (Zea mays), soybean (Glycine max), velvetleaf (Abutilon theophrasti), lambsquarters (Chenopodium album), poinsettia, wild (wild poinsettia, Euphorbia heterophylla), pigweed, palmer (palmer pigweed, Amaranthus palmeri), waterhemp (common waterhemp, Amaranthus rudis), surinam grass (Brachiaria decumbens), crabgrass, large (large crabgrass, Digitaria sangumnalis), crabgrass, Brazil (Brazilian crabgrass, Digitaria horizontalis), Panicum, fall (fall Panicum, Panicum dichotomiflorum), foxtail, giant (giant foxtail, Setaria faberii), foxtail, green (green foxtail, Setaria viridis), goosegrass (Eleusine indica), johnsongrass (Sorghum halepense), ragweed (common ragweed, Ambrosia elatior), barnyardgrass (Echinochloa crus-galli), sandbur (southern sandbur, Cenchrus echinatus), arrowleaf Sida (Sida rhombifolia), ryegrass, Italian (Italian ryegrass, Lolium multiflorum), dayflower, VA (Virginia dayflower, Commelina virginica), field bindweed (Convolvulus arvensis), morningglory (Ipomoea coccinea), nightshade (eastern black nightshade, Solanum ptycanthum), Kochia (Kochia scoparia), nutsedge, yellow (yellow nutsedge, Cyperus esculentus), horseweed (Conyza canadensis), and beggarticks (hairy beggarticks, Bidens pilosa), were planted into a silt loam soil and treated preemergence with test chemicals formulated in a non-phytotoxic solvent mixture which included a surfactant.
# (§2) At the same time, plants selected from these crop and weed species were planted in pots containing Sunshine Redi-Earth planting medium comprising spaghnum peat moss, vermiculite, starter nutrients and dolomitic limestone and treated with postemergence applications of a test chemical formulated in the same manner. Plants ranged in height from 2 to 18 cm (1- to 4-leaf stage) for postemergence treatments. Treated plants and controls were maintained in a greenhouse for 14 to 21 d, after which time all species were compared to controls and visually evaluated. Plant response ratings, summarized in Table E, are based on a scale of 0 to 100 where 0 is no effect and 100 is complete control. A dash (-) response means no test result.
# [2] = tested on: morningglory (Ipomoea coccinea); assay: Test E preemergence
# Text: as §1, §2
# [3] = tested on: beggarticks (hairy beggarticks, Bidens pilosa); assay: Test E preemergence
# Text: as §1, §2
# Kochia (Kochia scoparia) [4] = assay: Test E preemergence
# Text: as §1, §2
# [5] = tested on: arrowleaf Sida (Sida rhombifolia); assay: Test E preemergence
# Text: as §1, §2
# [6] = tested on: mustard, wild (wild mustard, Sinapis arvensis); assay: Test D preemergence
# In short: (§3)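 Seeds of the weed and crop species were sown in silt loam soil and treated preemergence with compounds formulated in a non-phytotoxic solvent mixture containing surfactant. After about 21 d in a controlled growth environment, plants were visually rated against untreated controls on a 0–100 scale (0 = no effect, 100 = complete control).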
# [7] = tested on: blackgrass (Alopecurus myosuroides); assay: Test D preemergence
# In short: as §3
# [8] = tested on: wheat, winter (winter wheat, Triticum aestivum); assay: Test D preemergence
# In short: as §3
# [9] = tested on: oilseed rape (Brassica napus); assay: Test D preemergence
# In short: as §3
# [10] = tested on: field poppy (Papaver rhoeas); assay: Test D preemergence
# In short: as §3
# [11] = tested on: barley, winter (winter barley Hordeum vulgare); assay: Test D preemergence
# In short: as §3
# [12] = tested on: buckwheat, wild (wild buckwheat, Polygonum convolvulus); assay: Test D preemergence
# In short: as §3
# Kochia (Kochia scoparia) [13] = assay: Test D preemergence
# In short: as §3
# [14] = tested on: deadnettle (henbit deadnettle, Lamium amplexicaule); assay: Test D preemergence
# In short: as §3
# [15] = tested on: radish, wild (wild radish, Raphanus raphanistrum); assay: Test D preemergence
# In short: as §3
# [16] = tested on: foxtail, green (green foxtail, Setaria viridis); assay: Test D preemergence
# In short: as §3
smiles,measurement,setting,value
CN1CC(c2cccc(C(F)(F)F)c2)C(C(=O)Nc2ccccc2S(C)(=O)=O)C1=O (stereo not drawn) [Compound 637],"Plant response rating: Dayflower, VA",[1]; 31 g ai/ha,0
same,"Plant response rating: Dayflower, VA",[1]; 62 g ai/ha,0
same,"Plant response rating: Dayflower, VA",[1]; 125 g ai/ha,0
same,"Plant response rating: Dayflower, VA",[1]; 250 g ai/ha,20
same,Plant response rating: Morningglory,[2]; 31 g ai/ha,0
same,Plant response rating: Morningglory,[2]; 62 g ai/ha,0
same,Plant response rating: Morningglory,[2]; 125 g ai/ha,35
same,Plant response rating: Morningglory,[2]; 250 g ai/ha,35
same,Plant response rating: Beggarticks,[3]; 31 g ai/ha,0
same,Plant response rating: Beggarticks,[3]; 62 g ai/ha,0
same,Plant response rating: Beggarticks,[3]; 125 g ai/ha,0
same,Plant response rating: Beggarticks,[3]; 250 g ai/ha,0
same,Plant response rating: Kochia,Kochia (Kochia scoparia) [4]; 31 g ai/ha,0
same,Plant response rating: Kochia,Kochia (Kochia scoparia) [4]; 62 g ai/ha,40
same,Plant response rating: Kochia,Kochia (Kochia scoparia) [4]; 125 g ai/ha,90
same,Plant response rating: Kochia,Kochia (Kochia scoparia) [4]; 250 g ai/ha,90
same,Plant response rating: Arrowleaf Sida,[5]; 31 g ai/ha,0
same,Plant response rating: Arrowleaf Sida,[5]; 62 g ai/ha,0
same,Plant response rating: Arrowleaf Sida,[5]; 125 g ai/ha,0
same,Plant response rating: Arrowleaf Sida,[5]; 250 g ai/ha,0
same,"Plant response rating: Mustard, Wild",[6]; 31 g ai/ha,5
same,"Plant response rating: Mustard, Wild",[6]; 62 g ai/ha,5
same,"Plant response rating: Mustard, Wild",[6]; 125 g ai/ha,15
same,"Plant response rating: Mustard, Wild",[6]; 250 g ai/ha,15
same,Plant response rating: Blackgrass,[7]; 31 g ai/ha,10
same,Plant response rating: Blackgrass,[7]; 62 g ai/ha,10
same,Plant response rating: Blackgrass,[7]; 125 g ai/ha,45
same,Plant response rating: Blackgrass,[7]; 250 g ai/ha,50
same,"Plant response rating: Wheat, Winter",[8]; 31 g ai/ha,5
same,"Plant response rating: Wheat, Winter",[8]; 62 g ai/ha,40
same,"Plant response rating: Wheat, Winter",[8]; 125 g ai/ha,60
same,"Plant response rating: Wheat, Winter",[8]; 250 g ai/ha,75
same,Plant response rating: Oilseed Rape,[9]; 31 g ai/ha,0
same,Plant response rating: Oilseed Rape,[9]; 62 g ai/ha,40
same,Plant response rating: Oilseed Rape,[9]; 125 g ai/ha,40
same,Plant response rating: Oilseed Rape,[9]; 250 g ai/ha,65
same,Plant response rating: Field Poppy,[10]; 31 g ai/ha,100
same,Plant response rating: Field Poppy,[10]; 62 g ai/ha,100
same,Plant response rating: Field Poppy,[10]; 125 g ai/ha,100
same,Plant response rating: Field Poppy,[10]; 250 g ai/ha,100
same,"Plant response rating: Barley, Winter",[11]; 31 g ai/ha,0
same,"Plant response rating: Barley, Winter",[11]; 62 g ai/ha,0
same,"Plant response rating: Barley, Winter",[11]; 125 g ai/ha,50
same,"Plant response rating: Barley, Winter",[11]; 250 g ai/ha,60
same,"Plant response rating: Buckwheat, Wild",[12]; 31 g ai/ha,0
same,"Plant response rating: Buckwheat, Wild",[12]; 62 g ai/ha,10
same,"Plant response rating: Buckwheat, Wild",[12]; 125 g ai/ha,15
same,"Plant response rating: Buckwheat, Wild",[12]; 250 g ai/ha,80
same,Plant response rating: Kochia,Kochia (Kochia scoparia) [13]; 31 g ai/ha,5
same,Plant response rating: Kochia,Kochia (Kochia scoparia) [13]; 62 g ai/ha,0
same,Plant response rating: Kochia,Kochia (Kochia scoparia) [13]; 125 g ai/ha,35
same,Plant response rating: Kochia,Kochia (Kochia scoparia) [13]; 250 g ai/ha,85
same,Plant response rating: Deadnettle,[14]; 31 g ai/ha,0
same,Plant response rating: Deadnettle,[14]; 62 g ai/ha,0
same,Plant response rating: Deadnettle,[14]; 125 g ai/ha,25
same,Plant response rating: Deadnettle,[14]; 250 g ai/ha,65
same,"Plant response rating: Radish, Wild",[15]; 62 g ai/ha,20
same,"Plant response rating: Radish, Wild",[15]; 125 g ai/ha,20
same,"Plant response rating: Radish, Wild",[15]; 250 g ai/ha,90
same,"Plant response rating: Foxtail, Green",[16]; 31 g ai/ha,75
same,"Plant response rating: Foxtail, Green",[16]; 62 g ai/ha,80
same,"Plant response rating: Foxtail, Green",[16]; 125 g ai/ha,95
same,"Plant response rating: Foxtail, Green",[16]; 250 g ai/ha,100
CN1CC(c2cccc(C(F)(F)F)c2)C(C(=O)Nc2cccc(F)c2F)C1=O (stereo not drawn) [Compound 636],"Plant response rating: Dayflower, VA",[1]; 31 g ai/ha,0
same,"Plant response rating: Dayflower, VA",[1]; 62 g ai/ha,0
same,"Plant response rating: Dayflower, VA",[1]; 125 g ai/ha,35
same,"Plant response rating: Dayflower, VA",[1]; 250 g ai/ha,65
same,Plant response rating: Morningglory,[2]; 31 g ai/ha,0
same,Plant response rating: Morningglory,[2]; 62 g ai/ha,0
same,Plant response rating: Morningglory,[2]; 125 g ai/ha,0
same,Plant response rating: Morningglory,[2]; 250 g ai/ha,0
same,Plant response rating: Beggarticks,[3]; 31 g ai/ha,0
same,Plant response rating: Beggarticks,[3]; 62 g ai/ha,0
same,Plant response rating: Beggarticks,[3]; 125 g ai/ha,0
same,Plant response rating: Beggarticks,[3]; 250 g ai/ha,0
same,Plant response rating: Kochia,Kochia (Kochia scoparia) [4]; 31 g ai/ha,85
same,Plant response rating: Kochia,Kochia (Kochia scoparia) [4]; 62 g ai/ha,90
same,Plant response rating: Kochia,Kochia (Kochia scoparia) [4]; 125 g ai/ha,90
same,Plant response rating: Kochia,Kochia (Kochia scoparia) [4]; 250 g ai/ha,95
same,Plant response rating: Arrowleaf Sida,[5]; 31 g ai/ha,35
same,Plant response rating: Arrowleaf Sida,[5]; 62 g ai/ha,65
same,Plant response rating: Arrowleaf Sida,[5]; 125 g ai/ha,80
same,Plant response rating: Arrowleaf Sida,[5]; 250 g ai/ha,90
same,"Plant response rating: Mustard, Wild",[6]; 31 g ai/ha,0
same,"Plant response rating: Mustard, Wild",[6]; 62 g ai/ha,15
same,"Plant response rating: Mustard, Wild",[6]; 125 g ai/ha,15
same,"Plant response rating: Mustard, Wild",[6]; 250 g ai/ha,85
same,Plant response rating: Blackgrass,[7]; 31 g ai/ha,25
same,Plant response rating: Blackgrass,[7]; 62 g ai/ha,30
same,Plant response rating: Blackgrass,[7]; 125 g ai/ha,60
same,Plant response rating: Blackgrass,[7]; 250 g ai/ha,75
same,"Plant response rating: Wheat, Winter",[8]; 31 g ai/ha,5
same,"Plant response rating: Wheat, Winter",[8]; 62 g ai/ha,60
same,"Plant response rating: Wheat, Winter",[8]; 125 g ai/ha,70
same,"Plant response rating: Wheat, Winter",[8]; 250 g ai/ha,65
same,Plant response rating: Oilseed Rape,[9]; 31 g ai/ha,10
same,Plant response rating: Oilseed Rape,[9]; 62 g ai/ha,30
same,Plant response rating: Oilseed Rape,[9]; 125 g ai/ha,60
same,Plant response rating: Oilseed Rape,[9]; 250 g ai/ha,65
same,Plant response rating: Field Poppy,[10]; 31 g ai/ha,90
same,Plant response rating: Field Poppy,[10]; 62 g ai/ha,95
same,Plant response rating: Field Poppy,[10]; 125 g ai/ha,100
same,Plant response rating: Field Poppy,[10]; 250 g ai/ha,100
same,"Plant response rating: Barley, Winter",[11]; 31 g ai/ha,5
same,"Plant response rating: Barley, Winter",[11]; 62 g ai/ha,45
same,"Plant response rating: Barley, Winter",[11]; 125 g ai/ha,55
same,"Plant response rating: Barley, Winter",[11]; 250 g ai/ha,80
same,"Plant response rating: Buckwheat, Wild",[12]; 31 g ai/ha,5
same,"Plant response rating: Buckwheat, Wild",[12]; 62 g ai/ha,75
same,"Plant response rating: Buckwheat, Wild",[12]; 125 g ai/ha,90
same,"Plant response rating: Buckwheat, Wild",[12]; 250 g ai/ha,80
same,Plant response rating: Kochia,Kochia (Kochia scoparia) [13]; 31 g ai/ha,5
same,Plant response rating: Kochia,Kochia (Kochia scoparia) [13]; 62 g ai/ha,25
same,Plant response rating: Kochia,Kochia (Kochia scoparia) [13]; 125 g ai/ha,75
same,Plant response rating: Kochia,Kochia (Kochia scoparia) [13]; 250 g ai/ha,75
same,Plant response rating: Deadnettle,[14]; 31 g ai/ha,0
same,Plant response rating: Deadnettle,[14]; 62 g ai/ha,35
same,Plant response rating: Deadnettle,[14]; 125 g ai/ha,70
same,Plant response rating: Deadnettle,[14]; 250 g ai/ha,75
same,"Plant response rating: Radish, Wild",[15]; 62 g ai/ha,25
same,"Plant response rating: Radish, Wild",[15]; 125 g ai/ha,65
same,"Plant response rating: Radish, Wild",[15]; 250 g ai/ha,100
same,"Plant response rating: Foxtail, Green",[16]; 31 g ai/ha,100
same,"Plant response rating: Foxtail, Green",[16]; 62 g ai/ha,100
same,"Plant response rating: Foxtail, Green",[16]; 125 g ai/ha,100
same,"Plant response rating: Foxtail, Green",[16]; 250 g ai/ha,100
